Experimental findings from PubChem BioAssay AID1591 (Sanford-Burnham Center for Chemical Genomics, 2009) are described below.

The test system of the data set is human plasma stability, LC/MS/MS, 180 min. Briefly: human plasma degradation, percent remaining – biochemical, LC/MS/MS, 180 min, dry powder, ADME assay, late-stage follow-up (AID 1591). The following applies: at 1 µM; hits give low values.

As to `C=CCn1c(SCC(=O)c2ccc(O)c(O)c2)nnc1-c1ccccc1OC`, the percent remaining is 82.6%.
